Data as given in patent publication US20230263886A1, “VACCINES, VACCINE PRIMING, AND ANTIGEN DOSE SPARING” (priority 2020, published 2023).

Key:
[1] = type: in vivo, C57BL/6J mice
Description: Body weights were measured serially.

H3N2 [2] = settings: including a recombinant influenza antigen
Description: Sera were analyzed at days 0, 14, and 28 by ELISA for H3N2-specific IgG titers and HI (hemagglutination inhibition) titers, H1N1-specific IgG titers and HI titers, and B/Phuket-specific IgG titers and HI titers. All mice were previously naïve to human influenza.

H3N2 [3] = assay: H3N2-specific IgG by ELISA, dose-sparing study in mice (Example 4); settings: FIG. 26
Description: Sera were analyzed at days 0, 21 and 42 by ELISA for H3N2-specific IgG.

Molecule	body weight after immunization ([1]; mice receiving TQL-1055)	dose sparing for vaccine antigens (H3N2 [2])	antigen dose-sparing effects, murine antibody response to FLUBLOK (H3N2 [3])	maximum weight loss ([1]; mice receiving 20 mcg of QS-21)
CC1O[C@@H](OC2C(O)[C@@H](NC(=O)CCCCCCCCCCC(=O)O)C(CO)O[C@H]2OC(=O)[C@]23CCC(C)(C)CC2C2=CCC4C5(C)CC[C@H](O)C(C)(C=O)C5CCC4(C)C2(C)CC3O)C(O)C(O)[C@H]1O[C@@H]1OC[C@@H](O)C(O)C1O (stereo partly shown) [TQL-1055]	gained weight steadily	at least 32 ×	superior antigen dose-sparing effects	
QS-21 [reference compound]				> 10%
